Where a SMILES comes first, the peptide text is derived from it. Bridges are numbered along the chain shown (N, C = ends).
Columns and labels:
[1] = test system: Bacillus subtilis (ATCC 23857); conditions: turgencin A data ref Hansen et al. [24]; cited from earlier work
Excerpt: Table 3 Antimicrobial activities of turgencin A and the synthesized StAMP-1–11 peptides. | column: Gram-Pos / Bs

Rhodotorula sp. = test: microbe, parasite or virus in culture; format: cell-based; conditions: potato dextrose broth with 2% glucose, room temperature 48 h, OD 600 nm, >90% inhibition; triplicate
Procedure: (§1) StAMP-1–11 were screened for antifungal activity against C. albicans (Ca, ATCC 10231), A. pullulans (Ap) and Rhodotorula sp. (Rh) (the last two were obtained from professor Arne Tronsmo, The Norwegian University of Life Sciences, Ås, Norway). The antifungal assay was performed as previously described with a few modifications. Briefly, fungal spores were dissolved in potato dextrose broth (Difco Laboratories) with 2% D(+)-glucose (Merck, Darmstadt, Germany) to a concentration of 4 × 10^5 spores/mL. The spores (50 µL) were inoculated on 96 microwell plates (Thermo Fisher Scientific) containing the synthetic peptides (50 µL) and controls (water or antibiotic). The peptides were diluted in MQ-H2O at final concentrations ranging from 250–3.9 µg/mL in two-fold serial dilutions. Triclosan (Sigma-Aldrich, Steinheim, Germany) was used as a positive (antifungal) control (32–0.25 µg/mL), and MQ-H2O as a negative (growth) control. Cultures were grown in room temperature for 24 h (Ca) and 48 h (Ap and Rh). Growth inhibition was determined by measuring OD values at 600 nm by a microplate reader (Synergy H1 Hybrid Multi-Mode Reader, BioTek, Winooski, VT, USA). […] All experiments were done in triplicate.

[2] = test system: Candida albicans (ATCC 10231); test: microbe, parasite or virus in culture; format: cell-based; conditions: potato dextrose broth with 2% glucose, room temperature 24 h, OD 600 nm, >90% inhibition; triplicate
Procedure: as §1

Aureobasidium pullulans = test: microbe, parasite or virus in culture; format: cell-based; conditions: potato dextrose broth with 2% glucose, room temperature 48 h, OD 600 nm, >90% inhibition; triplicate
Procedure: as §1

[3] = test system: Escherichia coli (ATCC 25922); conditions: turgencin A data ref Hansen et al. [24]; cited from earlier work
Excerpt: Table 3 Antimicrobial activities of turgencin A and the synthesized StAMP-1–11 peptides. | column: Gram-Neg / Ec

[4] = test system: Pseudomonas aeruginosa (ATCC 27853); conditions: turgencin A data ref Hansen et al. [24]; cited from earlier work
Excerpt: Table 3 Antimicrobial activities of turgencin A and the synthesized StAMP-1–11 peptides. | column: Gram-Neg / Pa

[5] = test system: Staphylococcus aureus (ATCC 9144); conditions: turgencin A data ref Hansen et al. [24]; cited from earlier work
Excerpt: Table 3 Antimicrobial activities of turgencin A and the synthesized StAMP-1–11 peptides. | column: Gram-Pos / Sa

[6] = test system: Corynebacterium glutamicum (ATCC 13032); conditions: turgencin A data ref Hansen et al. [24]; cited from earlier work
Excerpt: Table 3 Antimicrobial activities of turgencin A and the synthesized StAMP-1–11 peptides. | column: Gram-Pos / Cg

Bacillus megaterium = test: microbe, parasite or virus in culture; format: cell-based; conditions: Bacillus megaterium; MH medium, 24 h at 35 °C, OD 595 nm <10% of growth control; triplicates
Procedure: (§2) The synthesized peptides were screened for antibacterial activity against five strains of G+ bacteria: B. subtilis (Bs, ATCC 23857), C. glutamicum (Cg, ATCC 13032), S. aureus (Sa, ATCC 9144), Micrococcus luteus (Ml), B. megaterium (Bm) (the last two were obtained from professor Olaf B. Styrvold, UiT The Arctic University of Norway).
(§3) Two strains of G- bacteria, P. aeruginosa (Pa, ATCC 27853) and E. coli (Ec, ATCC 25922), were also used. Cultures stored at -80 °C in glycerol were transferred to Müller–Hinton plates (MH, Difco Laboratories, Detroit, MI, USA) and incubated for 24 h at 35 °C. Colonies of each strain were transferred to 5 mL liquid MH medium and left shaking (600 rpm) at room temperature overnight. An aliquot of actively growing bacteria (20 µL) was inoculated in 5 mL MH medium and left shaking for 2 h at room temperature. In order to have a sensitive bioassay, the bacterial cultures were diluted with medium to only 2.5–3 × 10^4 bacteria/mL and an aliquot of 50 µL was added to each well in 96 microwell plates (Thermo Fisher Scientific, Roskilde, Denmark) preloaded with peptide solution (50 µL). The antibacterial assays were performed as previously described. The microtiter plates were incubated for 24 h at 35 °C with optical density (595 nm) recorded every hour using an Envision 2103 multilabel reader, controlled by a Wallac Envision manager (PerkinElmer, Waltham, MA, USA). The minimum inhibitory concentration (MIC) was defined as the sample concentration showing an optical density less than 10% of the negative (growth) control, consisting of bacteria and MQ-H2O. Oxytetracycline (concentrations ranging from 20–0.02 µg/mL, Sigma-Aldrich) and indolicidin (concentration ranging from 200–0.2 µg/mL, Sigma-Aldrich) served as a positive (inhibition) control. The synthetic peptides were tested for antibacterial activity in concentrations ranging from 250 to 0.5 µg/mL in two-fold dilutions. All tests were performed in triplicates.

Micrococcus luteus = test: microbe, parasite or virus in culture; format: cell-based; conditions: Micrococcus luteus; MH medium, 24 h at 35 °C, OD 595 nm <10% of growth control; triplicates
Procedure: as §2, §3

In the case of `CSCC[C@@H]1NC(=O)[C@H](CCCCN)NC(=O)[C@@H](NC(=O)[C@H](C)NC(=O)[C@H](C)NC(=O)[C@H](CCCCN)NC(=O)[C@@H](NC(=O)[C@H](CCCCN)NC(=O)[C@@H]2CCCN2C(=O)CN)[C@@H](C)O)CSSC[C@@H](C(=O)N[C@@H](CC(=O)O)C(=O)N[C@@H](C)C(=O)N[C@H](C(N)=O)C(C)C)NC(=O)CNC(=O)[C@H](CC(C)C)NC(=O)[C@H](CCC(=O)O)NC(=O)[C@@H]2CSSC[C@H](NC(=O)[C@H](C)NC1=O)C(=O)N[C@@H](CCCCN)C(=O)N[C@@H](CC(C)C)C(=O)N[C@@H](C)C(=O)N[C@@H]([C@@H](C)O)C(=O)N[C@H]1CSSC[C@H](NC(=O)[C@H](CCCCN)NC(=O)[C@H](Cc3c[nH]c4ccccc34)NC(=O)CNC(=O)CNC(=O)[C@@H]3CCCN3C(=O)[C@H](CCCCN)NC(=O)[C@H](CCCCN)NC(=O)CNC1=O)C(=O)N[C@@H](CCCCN)C(=O)N[C@@H](CC(C)C)C(=O)N2` [Turgencin A] (H-GPKTKAACKMACKLATCGKKPGGWKCKLCELGCDAV-NH2; disulfide 8-33, 12-29, 17-26; N-terminus assumed), the “Antimicrobial Activity (MIC) Bs” value [1] is listed as 1.5 µg/mL, the “Antimicrobial Activity (MIC) Rh” value (Rhodotorula sp.) is listed as 23.2 µg/mL and the “Antimicrobial Activity (MIC) Ca” value [2] is listed as 46.3 µg/mL. The “Antimicrobial Activity (MIC) Ap” value (Aureobasidium pullulans) was 92.6 µg/mL, the “Antimicrobial Activity (MIC) Ec” value [3] was 3.0 µg/mL and the “Antimicrobial Activity (MIC) Pa” value [4] was 5.9 µg/mL. The “Antimicrobial Activity (MIC) Sa” value [5] was 23.3 µg/mL, the “Antimicrobial Activity (MIC) Cg” value [6] was 1.5 µg/mL and the “Antimicrobial Activity (MIC) Bm” value (Bacillus megaterium) was 0.5 µg/mL. The “Antimicrobial Activity (MIC) Ml” value (Micrococcus luteus) was 8.0 µg/mL.
